From ChEMBL document CHEMBL4270534, “Novel carbazole-triazole conjugates as DNA-targeting membrane active potentiators against clinical isolated fungi” (Eur J Med Chem, 2018)
Values after ≈ are worked out from the molar mass of the structure shown.

What was measured:
Type in all cases: functional
[1] = tested on: Candida tropicalis; assay: Antifungal activity against Candida tropicalis after 24 hrs by two-fold broth microdilution assay
[2] = tested on: Candida parapsilosis; assay: Antifungal activity against Candida parapsilosis ATCC 22019 after 24 hrs by two-fold broth microdilution assay; settings: Lodderomyces parapsilosis, ATCC 22019, 24 h
[3] = tested on: Aspergillus fumigatus; assay: Antifungal activity against Aspergillus fumigatus after 24 hrs by two-fold broth microdilution assay
[4] = tested on: Pseudomonas aeruginosa; assay: Antibacterial activity against Pseudomonas aeruginosa ATCC 27853 after 24 hrs by micro broth dilution method; settings: ATCC 27853, 24 h
[5] = tested on: Staphylococcus aureus; assay: Antibacterial activity against methicillin-resistant Staphylococcus aureus after 24 hrs by micro broth dilution method
[6] = tested on: Escherichia coli; assay: Antibacterial activity against Escherichia coli after 24 hrs by micro broth dilution method
[7] = tested on: Staphylococcus aureus; assay: Antibacterial activity against Staphylococcus aureus ATCC 29213 after 24 hrs by micro broth dilution method; settings: ATCC 29213, 24 h
[8] = tested on: Pseudomonas aeruginosa; assay: Antibacterial activity against Pseudomonas aeruginosa after 24 hrs by micro broth dilution method
[9] = tested on: Escherichia coli; assay: Antibacterial activity against Escherichia coli ATCC 25922 after 24 hrs by micro broth dilution method; settings: ATCC 25922, 24 h
[10] = tested on: Candida albicans; assay: Antifungal activity against Candida albicans after 24 hrs by two-fold broth microdilution assay
[11] = tested on: Staphylococcus aureus; assay: Antibacterial activity against Staphylococcus aureus after 24 hrs by micro broth dilution method
[12] = tested on: Enterococcus faecalis; assay: Antibacterial activity against Enterococcus faecalis after 24 hrs by micro broth dilution method
[13] = tested on: Acinetobacter baumannii; assay: Antibacterial activity against Acinetobacter baumannii after 24 hrs by micro broth dilution method
[14] = tested on: Klebsiella pneumoniae; assay: Antibacterial activity against Klebsiella pneumoniae after 24 hrs by micro broth dilution method
[15] = tested on: Staphylococcus aureus; assay: Antibacterial activity against Staphylococcus aureus ATCC 25923 after 24 hrs by micro broth dilution method; settings: ATCC 25923, 24 h
[16] = tested on: Candida albicans; assay: Antifungal activity against Candida albicans ATCC 90023 after 24 hrs by two-fold broth microdilution assay; settings: ATCC 90023, 24 h
[17] = tested on: Candida albicans; assay: Ratio of MFC to MIC for Candida albicans
[18] = tested on: Candida parapsilosis; assay: Fungicidal activity against Candida parapsilosis ATCC 22019 incubated for 24 hrs followed by plating onto tryptic soy agar medium and measured after 24 hrs by broth microdilution method; settings: Lodderomyces parapsilosis, ATCC 22019, 24 h
[19] = tested on: Candida tropicalis; assay: Fungicidal activity against Candida tropicalis incubated for 24 hrs followed by plating onto tryptic soy agar medium and measured after 24 hrs by broth microdilution method
[20] = tested on: Candida albicans; assay: Fungicidal activity against Candida albicans incubated for 24 hrs followed by plating onto tryptic soy agar medium and measured after 24 hrs by broth microdilution method
[21] = tested on: Candida tropicalis; assay: Ratio of MFC to MIC for Candida tropicalis
[22] = tested on: Candida parapsilosis; assay: Ratio of MFC to MIC for Candida parapsilosis ATCC 22019

Structure (SMILES) | MIC [1] | MIC [2] | MIC [3] | MIC [4] | MIC [5] | MIC [6] | MIC [7] | MIC [8] | MIC [9] | MIC [10] | MIC [11] | MIC [12] | MIC [13] | MIC [14] | MIC [15] | MIC [16] | further results
OC(Cn1cncn1)(Cn1ccc2ccccc21)c1ccc(F)cc1F (stereo not given) | 64 µg/mL (≈ 181 µM) | 64 µg/mL (≈ 181 µM) | 32 µg/mL (≈ 90.3 µM) | 128 µg/mL (≈ 361 µM) | 32 µg/mL (≈ 90.3 µM) | 64 µg/mL (≈ 181 µM) | 64 µg/mL (≈ 181 µM) | 64 µg/mL (≈ 181 µM) | 32 µg/mL (≈ 90.3 µM) | 32 µg/mL (≈ 90.3 µM) | 128 µg/mL (≈ 361 µM) | 64 µg/mL (≈ 181 µM) | 128 µg/mL (≈ 361 µM) | 128 µg/mL (≈ 361 µM) | 32 µg/mL (≈ 90.3 µM) | 128 µg/mL (≈ 361 µM) | 
OC(Cn1cncn1)(Cn1c2ccc(Br)cc2c2cc(Br)ccc21)c1ccc(Cl)c(Cl)c1 (stereo not given) | 8 µg/mL (≈ 13.4 µM) | 16 µg/mL (≈ 26.9 µM) | 32 µg/mL (≈ 53.8 µM) | 32 µg/mL (≈ 53.8 µM) | 8 µg/mL (≈ 13.4 µM) | 64 µg/mL (≈ 108 µM) | 32 µg/mL (≈ 53.8 µM) | 64 µg/mL (≈ 108 µM) | 32 µg/mL (≈ 53.8 µM) | 4 µg/mL (≈ 6.72 µM) | 64 µg/mL (≈ 108 µM) | 16 µg/mL (≈ 26.9 µM) | 128 µg/mL (≈ 215 µM) | 128 µg/mL (≈ 215 µM) | 16 µg/mL (≈ 26.9 µM) | 32 µg/mL (≈ 53.8 µM) | Ratio [17]: 4; MFC [18]: 32 µg/mL (≈ 53.8 µM); MFC [19]: 8 µg/mL (≈ 13.4 µM); MFC [20]: 16 µg/mL (≈ 26.9 µM); Ratio [21]: 1; Ratio [22]: 2
CCn1cc(C(=O)O)c(=O)c2cc(F)c(N3CCNCC3)cc21 [NORFLOXACIN] |  |  |  | 0.5 µg/mL (≈ 1.57 µM) | 8 µg/mL (≈ 25.1 µM) | 16 µg/mL (≈ 50.1 µM) | 8 µg/mL (≈ 25.1 µM) | 2 µg/mL (≈ 6.26 µM) | 8 µg/mL (≈ 25.1 µM) |  | 2 µg/mL (≈ 6.26 µM) | 4 µg/mL (≈ 12.5 µM) | 8 µg/mL (≈ 25.1 µM) | 4 µg/mL (≈ 12.5 µM) | 1 µg/mL (≈ 3.13 µM) |  | 
Cc1ccc(C(O)(Cn2cncn2)Cn2c3ccc(Br)cc3c3cc(Br)ccc32)cc1 (stereo not given) | 32 µg/mL (≈ 59.2 µM) | 32 µg/mL (≈ 59.2 µM) | 64 µg/mL (≈ 118 µM) | 64 µg/mL (≈ 118 µM) | 128 µg/mL (≈ 237 µM) | 256 µg/mL (≈ 474 µM) | 256 µg/mL (≈ 474 µM) | 256 µg/mL (≈ 474 µM) | 16 µg/mL (≈ 29.6 µM) | 64 µg/mL (≈ 118 µM) | 256 µg/mL (≈ 474 µM) | 64 µg/mL (≈ 118 µM) | 256 µg/mL (≈ 474 µM) | 256 µg/mL (≈ 474 µM) | 128 µg/mL (≈ 237 µM) | 128 µg/mL (≈ 237 µM) | 
OC(Cn1cncn1)(Cn1c2ccc(Br)cc2c2cc(Br)ccc21)c1ccc(F)cc1 (stereo not given) | 16 µg/mL (≈ 29.4 µM) | 8 µg/mL (≈ 14.7 µM) | 128 µg/mL (≈ 235 µM) | 64 µg/mL (≈ 118 µM) | 64 µg/mL (≈ 118 µM) | 64 µg/mL (≈ 118 µM) | 16 µg/mL (≈ 29.4 µM) | 128 µg/mL (≈ 235 µM) | 16 µg/mL (≈ 29.4 µM) | 8 µg/mL (≈ 14.7 µM) | 64 µg/mL (≈ 118 µM) | 64 µg/mL (≈ 118 µM) | 256 µg/mL (≈ 470 µM) | 256 µg/mL (≈ 470 µM) | 32 µg/mL (≈ 58.8 µM) | 64 µg/mL (≈ 118 µM) | Ratio [17]: 4; MFC [18]: 16 µg/mL (≈ 29.4 µM); MFC [19]: 32 µg/mL (≈ 58.8 µM); MFC [20]: 32 µg/mL (≈ 58.8 µM); Ratio [21]: 2; Ratio [22]: 2
OC(Cn1cncn1)(Cn1c2ccc(Br)cc2c2cc(Br)ccc21)c1ccc(Cl)cc1 (stereo not given) | 32 µg/mL (≈ 57.1 µM) | 32 µg/mL (≈ 57.1 µM) | 64 µg/mL (≈ 114 µM) | 16 µg/mL (≈ 28.5 µM) | 16 µg/mL (≈ 28.5 µM) | 128 µg/mL (≈ 228 µM) | 16 µg/mL (≈ 28.5 µM) | 256 µg/mL (≈ 457 µM) | 16 µg/mL (≈ 28.5 µM) | 8 µg/mL (≈ 14.3 µM) | 32 µg/mL (≈ 57.1 µM) | 16 µg/mL (≈ 28.5 µM) | 256 µg/mL (≈ 457 µM) | 256 µg/mL (≈ 457 µM) | 32 µg/mL (≈ 57.1 µM) | 64 µg/mL (≈ 114 µM) | 
CC(C)(C)c1ccc2c(c1)c1cc(C(C)(C)C)ccc1n2CC(O)(Cn1cncn1)c1ccc(F)cc1F (stereo not given) | 64 µg/mL (≈ 124 µM) | 64 µg/mL (≈ 124 µM) | 256 µg/mL (≈ 496 µM) | 64 µg/mL (≈ 124 µM) | 64 µg/mL (≈ 124 µM) | 128 µg/mL (≈ 248 µM) | 256 µg/mL (≈ 496 µM) | 128 µg/mL (≈ 248 µM) | 128 µg/mL (≈ 248 µM) | 64 µg/mL (≈ 124 µM) | 256 µg/mL (≈ 496 µM) | 128 µg/mL (≈ 248 µM) | 256 µg/mL (≈ 496 µM) | 32 µg/mL (≈ 61.9 µM) | 32 µg/mL (≈ 61.9 µM) | 128 µg/mL (≈ 248 µM) | 
OC(Cn1cncn1)(Cn1c2ccccc2c2cc(I)ccc21)c1ccc(F)cc1F (stereo not given) | 16 µg/mL (≈ 30.2 µM) | 32 µg/mL (≈ 60.3 µM) | 64 µg/mL (≈ 121 µM) | 256 µg/mL (≈ 483 µM) | 32 µg/mL (≈ 60.3 µM) | 256 µg/mL (≈ 483 µM) | 16 µg/mL (≈ 30.2 µM) | 128 µg/mL (≈ 241 µM) | 32 µg/mL (≈ 60.3 µM) | 16 µg/mL (≈ 30.2 µM) | 128 µg/mL (≈ 241 µM) | 16 µg/mL (≈ 30.2 µM) | 128 µg/mL (≈ 241 µM) | 256 µg/mL (≈ 483 µM) | 16 µg/mL (≈ 30.2 µM) | 64 µg/mL (≈ 121 µM) | 
